Key:
[1] = test system: mice; test: Analgesic Activity - Mouse Writhing Method (0.5% acetic acid IP); assay type: in vivo; conditions: for Ave. No. of Writhes/Mouse (±S.D.): 20 minute period, control saline 34.8 (8.8)
Protocol: Analgesic Activity of 10 (N-Methyl-4-Piperidylidene)-10H[1]-Benzopyrano[3,2-b]-Pyridine -- Mouse Writhing Method
Modified method of Whittle (Brit. J. Pharmacol. 1964, 22:246) -- Groups of 5 mice administered various dose-levels of the compound 30 minutes prior to the IP injection of 0.5% acetic acid (0.4 ml). Writhing counted for a 20 minute period following the acid injection.

[2] = test system: Carrageenin Induced Rat Paw Edema; test: Carrageenin Induced Rat Paw Edema; assay type: in vivo, male Sprague-Dawley rats; conditions: for % INCREASE IN PAW SIZE OVER NORMAL: 3 hr. reading, 0.5% MC control 89.3%
Protocol: Carrageenin Induced Rat Paw Edema
The carrageenin induced rat paw edema test of Winter, et al. (Proc. Soc. Exp. Biol. and Med., 1962, 111:544) and modified by Van Arman, et al. (J. Pharmacol. Exp. Therap., 1965, 150:328) is used as a primary test for anti-inflammatory activity.
Groups of male Sprague-Dawley rats weighing 160-220 grams are used to compare various dose levels of the test compound to control animals. The compound is administered orally to the respective groups 1 hour prior to a sub-plantar injection into the left hind paw with 0.1 ml of a 1.5% suspension of carrageenin in saline. The paws are measured volumetrically by mercury displacement prior to (normal paw), 1.5, 3 and 5 hours after the carrageenin injection.
Activity is calculated as the percent difference (inhibition) between the increases in paw size (edema) of the test groups compared to the control groups.

[3] = test system: reverse passive Arthus reaction; test: Reverse Passive Arthus Reaction (inhibition of the inflammatory lesion area); conditions: for % Inhibition of the Inflammatory Lesion Area: lesion excised 4 hours after Anti-B.S.A.

Compound: 10 (N-methyl-4-piperidylidene)-10H[1]-benzopyrano[3,2-b]-pyridine [A-45637]
- Ave. No. of Writhes/Mouse (±S.D.) ([1]; 10 mg/kg oral): 31.4 (16.7) Writhes/Mouse
- % Inhibition ([1]; 10 mg/kg oral, writhing, mice): 9.8%
- Ave. No. of Writhes/Mouse (±S.D.) ([1]; 20 mg/kg oral): 18.0 (8.3) Writhes/Mouse
- % Inhibition ([1]; 20 mg/kg oral, writhing, mice): 48.3%
- Ave. No. of Writhes/Mouse (±S.D.) ([1]; 40 mg/kg oral): 15.8 (8.0) Writhes/Mouse
- % Inhibition ([1]; 40 mg/kg oral, writhing, mice): 54.6%
- Ave. No. of Writhes/Mouse (±S.D.) ([1]; 80 mg/kg oral): 6.6 (4.6) Writhes/Mouse
- % Inhibition ([1]; 80 mg/kg oral, writhing, mice): 81.0%
- ED50 ([1]; P.O., mice, writhing, 95% CL (10.9-98.0)): 29.7 mg/kg
- % INCREASE IN PAW SIZE OVER NORMAL ([2]; 2 mg/kg oral): 66.9%
- % INHIBITION OF EDEMA (3 HR. READING) ([2]; 2 mg/kg oral, rat): 25.1%
- % INCREASE IN PAW SIZE OVER NORMAL ([2]; 4 mg/kg oral): 55.3%
- % INHIBITION OF EDEMA (3 HR. READING) ([2]; 4 mg/kg oral, rat): 38.1%
- % INCREASE IN PAW SIZE OVER NORMAL ([2]; 8 mg/kg oral): 50.0%
- % INHIBITION OF EDEMA (3 HR. READING) ([2]; 8 mg/kg oral, rat): 44.0%
- % INCREASE IN PAW SIZE OVER NORMAL ([2]; 16 mg/kg oral): 33.1%
- % INHIBITION OF EDEMA (3 HR. READING) ([2]; 16 mg/kg oral, rat): 62.9%
- ED25 ([2]; oral, rat, carrageenin paw edema, limits in parentheses): 2.04 (0.34, 3.55)
- % Inhibition of the Inflammatory Lesion Area ([3]; 0.75 mg/kg PO, rat): 43.2%
- % Inhibition of the Inflammatory Lesion Area ([3]; 1.5 mg/kg PO, rat): 64.4%
- % Inhibition of the Inflammatory Lesion Area ([3]; 2.5 mg/kg PO, rat): 70.9%
- % Inhibition of the Inflammatory Lesion Area ([3]; 5 mg/kg PO, rat): 81.2%
- % Inhibition of the Inflammatory Lesion Area ([3]; 10 mg/kg PO, rat): 82.9%
- Calculated ED50 value ([3]; PO, rat, printed limits (.07, 1.5)): 0.78 mg/kg

Compound: CN(C)CCC(c1ccc(Cl)cc1)c1ccccn1 (racemic) [chlorpheninamine, reference compound]
- activity in the reverse passive Arthus reaction ([3]; 10 mg/kg, P.O.): completely inactive

Compound: CN1CCC(=C2c3ccccc3C=Cc3ccccc32)CC1 [cyproheptadine, reference compound]
- activity in the reverse passive Arthus reaction ([3]; 5 mg/kg P.O.): completely inactive

From patent US3966944A, “10 (N-methyl-4-piperidylidene)-10H[1]-benzopyrano[3,2-b]-pyridine as an analgesic, anti-inflammatory and agent against type III hypersensitivity disease” (Abbott Laboratories, priority 1975, dated 1976)
